# Reference: patent US9518046B2 (Calitor Sciences, LLC, priority 2015, dated 2016)
# Tests used:
# [1] = literature; cited from earlier work
# [2] = literature; cited from earlier work; remark: listed apart in the source
# [3] = Pharmacokinetics after intravenous and oral administration in dogs; assay type: in vivo; conditions: Dog; iv dosing 1 mg/kg
# Experimental: (§1) The LC/MS/MS system used in the analysis consists of an Agilent 1200 Series vacuum degasser, binary pump, well-plate autosampler, thermostatted column compartment, the Agilent G6430 Triple Quadrupole Mass Spectrometer with an electrosprayionization (ESI) source. Quantitative analysis was carried out using MRM mode. The parameters for MRM transitions are in the Table A.
# (§2) An Agilent XDB-C18, 2.1×30 mm, 3.5 M column was used for the analysis. 5 L of the samples were injected. Analysis condition: The mobile phase was 0.1% formic acid in water (A) and 0.1% formic acid in methanol (B). The flow rate was 0.4 mL/min. And the gradient of Mobile phase was in the Table B.
# (§3) Alternatively, an Agilent 6330 series LC/MS/MS spectrometer equipped with G1312A binary pumps, a G1367A autosampler and a G1314C UV detector were used in the analysis. An ESI source was used on the LC/MS/MS spectrometer. The analysis was done in positive ion mode as appropriate and the MRM transition for each analyte was optimized using standard solution. A Capcell MP-C18 100×4.6 mm I.D., […] column (Phenomenex, Torrance, Calif., USA) was used during the analysis. The mobile phase was 5 mM ammonia acetate, 0.1% MeOH in water (A): 5 mM ammonia acetate, 0.1% MeOH in acetonitrile (B) (70:30, v/v). The flow rate was 0.6 mL/min. Column was maintained at ambient temperature. 20 μL of the samples were injected.
# (§4) The compounds disclosed herein are assessed in pharmacokinetic studies in mice, rats, dogs or monkeys. The compounds are administered as a water solution, 2% HPMC+1% TWEEN®80 in water solution, 5% DMSO+5% solutol in saline, 4% MC suspension or capsule. For the intravenous administration, the animals are generally given at 1 or 2 mg/kg dose. For the oral (p.o.) dosing, mice and rats are generally given 5 or 10 mg/kg dose, and dogs and monkeys are generally given 10 mg/kg dose. […] The plasma solutions are collected, stored at −20° C. or −70° C. until analyzed by LC/MS/MS as described above.
# [4] = Pharmacokinetics after intravenous and oral administration in monkeys; assay type: in vivo; conditions: Monkey; iv dosing 1 mg/kg
# Experimental: as §1, §2, §3, §4
# [5] = Pharmacokinetics after intravenous and oral administration in rats; assay type: in vivo; conditions: for CL/F / bioavailability: Rats; for CL/F: iv dosing, dose 1 mg/kg (0.5 for Ex. 1, 10, 11, 35; 0.48 for Ex. 24); for AUC(0-t) / half-life / Vd / bioavailability: rat, plasma; for AUC(0-t) / half-life / Vd: iv, 1 mg/kg; for Vd: read-out: Vss; for bioavailability: oral (p.o.) generally 5 or 10 mg/kg versus iv dosing
# In short: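 Dosing used solution, suspension or capsule formulations: 1 or 2 mg/kg IV in all species; PO 5 or 10 mg/kg in mice and rats, 10 mg/kg in dogs and monkeys. Plasma sampled from 0.083 or 0.25 h up to 24 h post-dose; concentrations determined by LC/MS/MS in MRM mode.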
# [6] = Pharmacokinetics after intravenous and oral administration in mice; assay type: in vivo; conditions: Mouse; iv dosing 1 mg/kg
# Experimental: as §1, §2
# as §3, with “The mobile phase was 5 mM ammonia acetate, 0.1% MeOH in water (A): 5 mM ammonia acetate, 0.1% MeOH in acetonitrile (B) (70:30, v/v). The flow rate was 0.6 mL/min. Column was maintained at ambient temperature. 20 μL of the samples were injected.” left out
# The compounds disclosed herein are assessed in pharmacokinetic studies in mice, rats, dogs or monkeys. […] The plasma solutions are collected, stored at −20° C. or −70° C. until analyzed by LC/MS/MS as described above.
# PI3K (p110α/p85α) (h) = molecular target: T1, PI3K (p110α/p85α) (h) (Homo sapiens, UniProt P42336); assay: PI3K (p110α/p85α) (h) non-radioactive HTRF kinase assay; assay type: biochemical; conditions: Kinase inhibition data; performed at Millipore UK Ltd
# T1 construct: purchased Millipore UK Ltd
# Experimental: (§5) The above assay procedure can be used to determine the IC50 for inhibition and/or the inhibition constant, Ki.
# PI3K (p110α/p85α) (h) [Non-Radioactive Assay]
# (§6) PI3K (p110α/p85α) (h) is incubated in assay buffer containing 10 μM phosphatidylinositol 4,5-bisphosphate and MgATP (concentration as required). The reaction is initiated by the addition of the ATP solution. After incubation for 30 minutes at room temperature, the reaction is stopped by the addition of stop solution containing EDTA and biotinylated phosphatidylinositol-3,4,5-trisphosphate. Finally, detection buffer is added, which contains europium-labelled anti-GST monoclonal antibody, GST-tagged GRP1 PH domain and streptavidin allophycocyanin. The plate is then read in timeresolved fluorescence mode and the homogenous time-resolved fluorescence (HTRF) signal is determined according to the formula HTRF=10000×(Em665 nm/Em620 nm).
# (§7) The kinase assays described herein were performed at Millipore UK Ltd, Dundee Technology Park, Dundee DD2 1SW, UK.
# PI3K (p110δ/p85α) (h) = molecular target: T2, PI3K (p110δ/p85α) (h) (Homo sapiens, UniProt O00329); assay: PI3K (p110δ/p85α) (h) non-radioactive HTRF kinase assay; assay type: biochemical; conditions: Kinase inhibition data; performed at Millipore UK Ltd
# T2 construct: purchased Millipore UK Ltd
# Experimental: as §5
# PI3K (p110δ/p85α) (h) [Non-Radioactive Assay]
# as §6, with “(p110δ/p85α)” for “(p110α/p85α)”, “phosphatidylinositol-4, 5-bisphosphate” for “phosphatidylinositol 4,5-bisphosphate”, “MgATP mix.” for “ATP solution.”, “streptavidin-allophycocyanin.” for “streptavidin allophycocyanin.”
# as §7
# PI3K (p120γ) (h) = molecular target: T3, PI3K (p120γ) (h) (Homo sapiens, UniProt P48736); assay: PI3K (p120γ) (h) non-radioactive HTRF kinase assay; assay type: biochemical; conditions: Kinase inhibition data; performed at Millipore UK Ltd
# T3 construct: purchased Millipore UK Ltd
# Experimental: as §5
# PI3K (p120γ) (h) [Non-Radioactive Assay]
# as §6, with “(p120γ)” for “(p110α/p85α)”, “M phosphatidylinositol-4, 5-bisphosphate” for “μM phosphatidylinositol 4,5-bisphosphate”, “MgATP mix.” for “ATP solution.”, “streptavidin-allophycocyanin.” for “streptavidin allophycocyanin.”
# as §7
# [7] = Compound stability in human liver microsomes; assay type: in vitro ADME; conditions: for half-life at 5 μM: human liver microsomes 0.5 mg protein/mL, compound 5 μM, NADPH 1.0 mM, pH 7.4, 37° C., read-out: Human T1/2; for CLint scaled at 5 μM: liver microsomes, pH 7.4, in vivo CLint extrapolated from human liver microsome incubation
# Experimental: (§8) Human or rat liver microsomes incubations were conducted in duplicate in polypropylene tubes. The typical incubation mixtures consisted of human or rat liver microsomes (0.5 mg protein/mL), compounds of interest (5 μM) and NADPH (1.0 mM) in a total volume of 200 μL potassium phosphate buffer (PBS, 100 mM, pH 7.4). Compounds were dissolved in DMSO and diluted with PBS such that the final concentration of DMSO was 0.05%. The enzymatic reactions were commenced with the addition of protein after a 3-min preincubation and incubated in a water bath open to the air at 37° C. Reactions were terminated at various time points (0, 5, 10, 15, 30, 60 min) by adding equal volume of ice-cold acetonitrile. The samples were stored at −80° C. until LC/MS/MS assays.
# (§9) The concentrations of compounds in the incubation mixtures of human or rat liver microsomes were determined by a LC/MS/MS method. The ranges of the linearity in the concentration range were determined for each tested compounds.
# (§10) A parallel incubation was performed using denatured microsomes as the negative control, and reactions were terminated at various time points (0, 15, 60 min) after incubation at 37° C.
# (§11) Dextromethorphan (70 μM) was selected as the positive control, and reactions were terminated at various time points (0, 5, 10, 15, 30, 60 min) after incubation at 37° C. Both positive and negative control samples were included in each assay to ensure the integrity of the microsomal incubation system.
# (§12) The concentrations of compounds in human or rat liver microsome incubations were plotted as a percentage of the relevant zero time point control for each reaction. The in vivo CLint were extrapolated (ref.: Naritomi, Y.; Terashita, S.; Kimura, S.; Suzuki, A.; Kagayama, A.; and Sugiyama, Y.; Prediction of human hepatic clearance from in vivo animal experiments and in vitro metabolic studies with liver microsomes from animals and humans. Drug Metab. Dispos., 2001, 29: 1316-1324).
# PI3K (h) p110β/p85α = molecular target: T4, PI3K (h) p110β/p85α (Homo sapiens, UniProt P42338); assay: PI3K (p110β/p85α) (h) non-radioactive HTRF kinase assay; assay type: biochemical; conditions: Kinase inhibition data; performed at Millipore UK Ltd
# T4 construct: purchased Millipore UK Ltd
# [8] = Compound stability in rat liver microsomes; assay type: in vitro ADME; conditions: for CLint scaled at 5 μM: liver microsomes, pH 7.4, in vivo CLint extrapolated from rat liver microsome incubation; for half-life at 5 μM: rat liver microsomes 0.5 mg protein/mL, compound 5 μM, NADPH 1.0 mM, pH 7.4, 37° C., read-out: Rat T1/2
# Experimental: as §8, §9, §10, §11, §12
# protein kinases = conditions: literature; cited from earlier work
# PI3Kδ = conditions: literature; cited from earlier work
# [9] = murine model of asthma, ovalbumin-induced airway inflammation; literature; cited from earlier work
# T2 sequence (O00329 whole entry): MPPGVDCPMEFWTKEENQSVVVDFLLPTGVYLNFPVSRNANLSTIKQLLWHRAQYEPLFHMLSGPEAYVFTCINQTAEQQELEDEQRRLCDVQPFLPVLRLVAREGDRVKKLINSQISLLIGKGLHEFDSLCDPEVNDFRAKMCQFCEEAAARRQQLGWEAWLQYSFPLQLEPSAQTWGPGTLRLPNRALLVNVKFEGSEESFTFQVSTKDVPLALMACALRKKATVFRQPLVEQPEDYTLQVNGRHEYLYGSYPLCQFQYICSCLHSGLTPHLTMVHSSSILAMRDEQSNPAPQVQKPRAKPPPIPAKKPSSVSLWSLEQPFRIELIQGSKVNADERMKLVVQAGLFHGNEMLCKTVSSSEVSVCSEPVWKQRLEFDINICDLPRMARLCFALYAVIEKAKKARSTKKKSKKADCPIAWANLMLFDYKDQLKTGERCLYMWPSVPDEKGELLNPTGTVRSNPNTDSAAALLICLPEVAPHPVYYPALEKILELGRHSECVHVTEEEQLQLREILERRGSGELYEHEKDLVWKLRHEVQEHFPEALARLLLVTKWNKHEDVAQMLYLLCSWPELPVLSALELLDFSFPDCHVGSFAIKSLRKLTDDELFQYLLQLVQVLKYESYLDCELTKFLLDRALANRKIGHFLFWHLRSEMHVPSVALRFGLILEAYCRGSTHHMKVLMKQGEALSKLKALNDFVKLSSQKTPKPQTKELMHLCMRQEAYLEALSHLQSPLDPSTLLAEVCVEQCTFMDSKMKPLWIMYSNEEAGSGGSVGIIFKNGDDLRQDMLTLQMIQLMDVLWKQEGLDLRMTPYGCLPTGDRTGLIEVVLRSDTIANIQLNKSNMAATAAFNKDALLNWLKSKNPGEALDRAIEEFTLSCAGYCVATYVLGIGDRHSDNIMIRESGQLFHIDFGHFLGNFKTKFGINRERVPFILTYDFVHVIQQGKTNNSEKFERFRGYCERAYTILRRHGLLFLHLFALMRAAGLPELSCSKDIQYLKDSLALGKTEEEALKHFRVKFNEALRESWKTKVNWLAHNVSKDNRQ
# T2 sequence (P27986 whole entry partner): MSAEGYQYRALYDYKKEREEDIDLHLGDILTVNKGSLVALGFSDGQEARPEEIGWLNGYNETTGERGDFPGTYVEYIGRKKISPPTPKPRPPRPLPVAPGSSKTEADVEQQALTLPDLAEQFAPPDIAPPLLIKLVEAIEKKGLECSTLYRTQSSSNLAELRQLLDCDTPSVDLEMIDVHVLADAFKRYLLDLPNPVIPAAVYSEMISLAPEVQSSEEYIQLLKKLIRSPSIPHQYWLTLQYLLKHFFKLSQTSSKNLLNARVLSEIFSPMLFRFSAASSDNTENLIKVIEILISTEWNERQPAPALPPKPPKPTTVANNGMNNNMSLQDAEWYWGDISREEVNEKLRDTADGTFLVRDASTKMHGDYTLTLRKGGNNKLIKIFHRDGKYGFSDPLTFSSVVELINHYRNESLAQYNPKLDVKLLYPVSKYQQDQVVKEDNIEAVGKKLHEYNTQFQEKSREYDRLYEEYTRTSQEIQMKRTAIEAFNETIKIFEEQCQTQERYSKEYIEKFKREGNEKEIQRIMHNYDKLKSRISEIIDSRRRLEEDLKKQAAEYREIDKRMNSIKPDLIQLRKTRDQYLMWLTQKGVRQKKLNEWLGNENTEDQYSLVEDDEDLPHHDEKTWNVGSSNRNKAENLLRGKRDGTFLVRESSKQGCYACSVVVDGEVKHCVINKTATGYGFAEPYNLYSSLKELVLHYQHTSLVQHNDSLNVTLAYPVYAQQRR
# T3 sequence (P48736 whole entry): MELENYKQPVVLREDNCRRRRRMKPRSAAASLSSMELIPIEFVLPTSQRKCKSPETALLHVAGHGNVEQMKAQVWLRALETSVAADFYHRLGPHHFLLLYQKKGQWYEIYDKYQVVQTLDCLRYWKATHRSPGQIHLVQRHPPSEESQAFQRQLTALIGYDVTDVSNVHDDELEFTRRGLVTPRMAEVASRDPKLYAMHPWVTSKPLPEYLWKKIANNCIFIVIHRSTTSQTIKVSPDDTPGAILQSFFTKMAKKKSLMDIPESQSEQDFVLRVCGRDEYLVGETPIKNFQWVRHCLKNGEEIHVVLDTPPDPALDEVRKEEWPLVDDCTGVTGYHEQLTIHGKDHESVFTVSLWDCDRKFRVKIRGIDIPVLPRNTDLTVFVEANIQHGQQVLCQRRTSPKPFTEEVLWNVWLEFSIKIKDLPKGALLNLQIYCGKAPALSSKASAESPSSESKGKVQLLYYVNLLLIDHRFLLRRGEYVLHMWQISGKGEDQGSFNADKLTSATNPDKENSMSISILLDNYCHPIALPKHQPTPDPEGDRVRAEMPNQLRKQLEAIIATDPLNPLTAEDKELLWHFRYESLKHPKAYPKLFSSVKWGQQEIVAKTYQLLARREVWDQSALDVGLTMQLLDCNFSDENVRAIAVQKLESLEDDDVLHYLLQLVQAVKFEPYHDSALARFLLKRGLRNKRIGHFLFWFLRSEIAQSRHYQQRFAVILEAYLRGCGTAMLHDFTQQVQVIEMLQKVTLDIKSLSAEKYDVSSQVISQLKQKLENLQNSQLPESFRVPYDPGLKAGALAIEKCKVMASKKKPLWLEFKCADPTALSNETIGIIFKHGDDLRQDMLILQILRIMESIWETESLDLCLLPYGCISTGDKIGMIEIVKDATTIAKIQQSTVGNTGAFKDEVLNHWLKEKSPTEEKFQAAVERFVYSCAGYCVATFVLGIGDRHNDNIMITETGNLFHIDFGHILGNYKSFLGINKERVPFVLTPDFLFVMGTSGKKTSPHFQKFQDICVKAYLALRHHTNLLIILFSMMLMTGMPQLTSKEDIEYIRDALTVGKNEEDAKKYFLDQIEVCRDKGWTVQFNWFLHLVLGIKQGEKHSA
# T4 sequence (P42338 whole entry): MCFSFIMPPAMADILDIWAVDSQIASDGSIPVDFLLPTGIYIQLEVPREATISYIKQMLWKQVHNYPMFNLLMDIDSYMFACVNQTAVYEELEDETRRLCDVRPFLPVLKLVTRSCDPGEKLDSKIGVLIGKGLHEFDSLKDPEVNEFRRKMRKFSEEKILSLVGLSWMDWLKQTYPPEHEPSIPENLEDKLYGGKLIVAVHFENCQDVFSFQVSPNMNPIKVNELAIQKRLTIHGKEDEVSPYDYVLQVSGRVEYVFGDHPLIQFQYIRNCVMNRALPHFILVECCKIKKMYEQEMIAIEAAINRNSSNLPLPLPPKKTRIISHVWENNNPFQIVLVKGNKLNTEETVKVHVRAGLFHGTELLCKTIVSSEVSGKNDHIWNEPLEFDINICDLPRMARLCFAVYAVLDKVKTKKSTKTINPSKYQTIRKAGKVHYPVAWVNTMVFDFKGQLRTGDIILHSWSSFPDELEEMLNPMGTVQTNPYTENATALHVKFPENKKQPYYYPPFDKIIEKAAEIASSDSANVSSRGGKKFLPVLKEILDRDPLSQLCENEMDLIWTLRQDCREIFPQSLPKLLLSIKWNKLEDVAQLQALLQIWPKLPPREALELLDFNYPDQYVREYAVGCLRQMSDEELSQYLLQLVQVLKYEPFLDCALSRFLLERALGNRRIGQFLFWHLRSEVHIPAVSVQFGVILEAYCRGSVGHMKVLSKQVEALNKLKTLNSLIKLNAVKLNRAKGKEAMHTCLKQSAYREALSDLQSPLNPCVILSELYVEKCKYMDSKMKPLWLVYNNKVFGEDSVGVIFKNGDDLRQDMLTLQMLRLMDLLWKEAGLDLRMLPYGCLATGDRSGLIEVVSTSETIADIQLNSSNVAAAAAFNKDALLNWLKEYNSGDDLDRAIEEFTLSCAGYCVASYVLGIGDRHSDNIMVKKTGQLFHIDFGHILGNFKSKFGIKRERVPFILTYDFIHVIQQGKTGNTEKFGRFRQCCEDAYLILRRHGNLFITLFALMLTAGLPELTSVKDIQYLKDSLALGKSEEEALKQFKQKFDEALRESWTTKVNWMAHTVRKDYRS
# T4 sequence (P27986 whole entry partner): as the sequence (P27986 whole entry partner) above
# T1 sequence (P42336 whole entry): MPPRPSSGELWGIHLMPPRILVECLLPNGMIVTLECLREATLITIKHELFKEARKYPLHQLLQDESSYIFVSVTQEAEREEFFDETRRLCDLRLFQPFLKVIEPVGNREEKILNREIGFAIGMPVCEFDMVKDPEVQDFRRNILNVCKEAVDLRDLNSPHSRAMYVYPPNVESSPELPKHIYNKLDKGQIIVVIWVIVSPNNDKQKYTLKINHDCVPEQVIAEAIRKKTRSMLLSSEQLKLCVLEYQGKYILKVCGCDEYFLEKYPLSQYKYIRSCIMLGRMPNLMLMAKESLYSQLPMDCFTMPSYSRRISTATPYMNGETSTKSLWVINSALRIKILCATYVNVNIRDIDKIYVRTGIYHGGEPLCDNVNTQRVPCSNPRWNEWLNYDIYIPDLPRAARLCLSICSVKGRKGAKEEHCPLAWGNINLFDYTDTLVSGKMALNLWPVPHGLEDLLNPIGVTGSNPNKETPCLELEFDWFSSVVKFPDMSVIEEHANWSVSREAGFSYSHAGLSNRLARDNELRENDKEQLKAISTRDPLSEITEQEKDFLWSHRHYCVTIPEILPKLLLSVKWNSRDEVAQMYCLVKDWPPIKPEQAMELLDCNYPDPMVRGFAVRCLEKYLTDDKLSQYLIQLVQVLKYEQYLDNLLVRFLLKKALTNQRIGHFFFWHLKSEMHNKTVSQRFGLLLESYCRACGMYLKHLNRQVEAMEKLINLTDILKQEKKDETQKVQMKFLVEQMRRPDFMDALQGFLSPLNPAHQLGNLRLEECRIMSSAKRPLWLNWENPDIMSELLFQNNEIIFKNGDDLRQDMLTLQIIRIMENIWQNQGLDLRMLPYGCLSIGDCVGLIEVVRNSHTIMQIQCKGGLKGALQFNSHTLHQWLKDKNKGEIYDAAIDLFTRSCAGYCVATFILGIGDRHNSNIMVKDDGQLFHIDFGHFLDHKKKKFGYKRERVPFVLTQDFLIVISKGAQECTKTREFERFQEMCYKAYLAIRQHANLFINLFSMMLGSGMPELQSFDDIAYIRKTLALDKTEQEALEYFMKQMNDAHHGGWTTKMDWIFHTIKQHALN
# T1 sequence (P27986 whole entry partner): as the sequence (P27986 whole entry partner) above
SMILES,CL/F [3],CL/F [4],CL/F [5],IC50 (PI3K (p110α/p85α) (h)),IC50 (PI3K (p110δ/p85α) (h)),IC50 (PI3K (p120γ) (h)),half-life at 5 μM [7],CLint scaled at 5 μM [7],IC50 (PI3K (h) p110β/p85α),AUC(0-t) [5],half-life [5],Vd [5],bioavailability [5],CLint scaled at 5 μM [8],half-life at 5 μM [8],further results
O=C1NC(=O)/C(=C\c2ccc3nccnc3c2)S1 [AS 605240],–,–,–,–,–,–,–,–,–,–,–,–,–,–,–,effect on onset of disease in model of systemic lupus erythematosis [1]: delay onset of disease; efficacy in mouse model of rheumatoid arthritis [2]: efficacious
"CC[C@H](Nc1ncnc(N)c1-c1nc(C)no1)c1nc2cccc(Cl)c2c(=O)n1C1CC1 [Ex. 4, (S)-2-(1-((6-amino-5-(3-methyl-1,2,4-oxadiazol-5-yl)pyrimidin-4-yl)amino)-propyl)-5-chloro-3-cyclopropylquinazolin-4(3H)-one]",9.67 mL/min/kg,11.6 mL/min/kg,21.5 mL/min/kg,–,–,–,–,–,–,–,–,–,–,–,–,–
"Cc1nnc(-c2c(N)ncnc2N[C@@H](C)c2nc3cccc(Cl)c3c(=O)n2-c2ccccc2)o1 [Ex. 64, (S)-2-(1-((6-amino-5-(5-methyl-1,3,4-oxadiazol-2-yl)pyrimidin-4-yl)amino)ethyl)-5-chloro-3-phenylquinazolin-4(3H)-one]",1.83 mL/min/kg,7.17 mL/min/kg,28.3 mL/min/kg,–,–,–,–,–,–,–,–,–,–,–,–,CL/F [6]: 18.8 mL/min/kg
Cc1ccccc1-n1c(Cn2cnc3c(N)ncnc32)nc2cccc(C)c2c1=O [IC87114],–,–,–,–,–,–,–,–,–,–,–,–,–,–,–,activity against any protein kinases tested (protein kinases): no activity; inhibits PI3Kδ (PI3Kδ): high nanomolar range (triple digit); effect on inflammation and disease [9]: significantly ameliorate inflammation and disease

# More lines, main results first:
CL/F [3],CL/F [4],CL/F [5],IC50 (PI3K (p110α/p85α) (h)),IC50 (PI3K (p110δ/p85α) (h)),IC50 (PI3K (p120γ) (h)),half-life at 5 μM [7],CLint scaled at 5 μM [7],IC50 (PI3K (h) p110β/p85α),AUC(0-t) [5],half-life [5],Vd [5],bioavailability [5],CLint scaled at 5 μM [8],half-life at 5 μM [8],SMILES,further results
6.17 mL/min/kg,15.3 mL/min/kg,–,–,–,–,–,–,–,–,–,–,–,–,–,"Cc1noc(-c2c(N)ncnc2N[C@@H](C)c2nc3cccc(Cl)c3c(=O)n2-c2ccccc2)n1 [Ex. 65, (S)-2-(1-((6-amino-5-(3-methyl-1,2,4-oxadiazol-5-yl)pyrimidin-4-yl)amino)ethyl)-5-chloro-3-phenylquinazolin-4(3H)-one]",CL/F [6]: 31.7 mL/min/kg
–,–,39.3 mL/min/kg,2180 nM,16 nM,878 nM,1.11 h,26.2 mL/min/kg,1800 nM,423 ng·h/mL,0.98 h,2.98 L/kg,96.2%,15.2 mL/min/kg,2.73 h,"Cc1noc(-c2c(N)ncnc2N[C@@H](C)c2nc3cccc(-c4cnn(C)c4)c3c(=O)n2C2CC2)n1 [Ex. 66, (S)-2-(1-((6-amino-5-(3-methyl-1,2,4-oxadiazol-5-yl)pyrimidin-4-yl)amino)ethyl)-3-cyclopropyl-5-(1-methyl-1H-pyrazol-4-yl)quinazolin-4(3H)-one]",–
–,–,5.83 mL/min/kg,1420 nM,4 nM,92 nM,1.22 h,23.8 mL/min/kg,1180 nM,2690 ng·h/mL,1.8 h,0.89 L/kg,70%,17.6 mL/min/kg,2.36 h,"Cc1noc(-c2c(N)ncnc2N[C@@H](C)c2nc3cccc(-c4cnn(C)c4)c3c(=O)n2-c2ccccc2)n1 [Ex. 68, (S)-2-(1-((6-amino-5-(3-methyl-1,2,4-oxadiazol-5-yl)pyrimidin-4-yl)amino)ethyl)-5-(1-methyl-1H-pyrazol-4-yl)-3-phenylquinazolin-4(3H)-one]",–
–,–,15 mL/min/kg,> 3000 nM,22 nM,1170 nM,2.31 h,12.6 mL/min/kg,> 3000 nM,1100 ng·h/mL,1.25 h,1.54 L/kg,83%,9.99 mL/min/kg,4.14 h,"Cc1nnc(-c2c(N)ncnc2N[C@@H](C)c2nc3cccc(-c4cnn(C)c4)c3c(=O)n2-c2ccccc2)o1 [Ex. 69, (S)-2-(1-((6-amino-5-(5-methyl-1,3,4-oxadiazol-2-yl)pyrimidin-4-yl)amino)ethyl)-5-(1-methyl-1H-pyrazol-4-yl)-3-phenylquinazolin-4(3H)-one]",–
